Results published in US20230374054A1, “METHOD FOR PURIFYING SUCRALOSE” (ANHUI JINHE INDUSTRIAL CO., LTD., priority 2020, published 2023).

Experiments:
[1] = Accelerated stability test (ICH guideline), purity of the stored sucralose product by HPLC; format: physicochemical; details: 40° C. ± 2° C., 60% RH ± 5% RH
Experimental: A test and analysis method for the purity of sucralose involved in the present disclosure could refer to the Chinese National Standard “GB25531-2010 for Food Additive Sucralose”.
Analysis and determination conditions of the purity of sucralose: High-performance liquid chromatograph from Shimadzu, Japan: RID-10A differential refractive index detector, LC-10ADVP high-pressure pump, and CTO-10ASVP incubator; chromatographic column: Agilent XDB C18 column (250 mm×4.6 mm, 5 μm); mobile phase: methanol-0.125% dipotassium phosphate (DKP) aqueous solution (4:6); column temperature: 30° C.; and flow rate: 1.0 mL/min. Methanol (chromatographically pure), DKP (analytically pure), UPW, and sucralose (purity: 99.9%) are required, and a content is determined by an external standard method.
The products obtained according to Examples 1 to 6 and Comparative Examples 1 to 3 each were subjected to an accelerated stability test.

[2] = Bulk density determination (50 mL measuring cylinder, free-fall impact until compacted); format: physicochemical; details: sample compacted in 50 mL measuring cylinder, free-fall impact at 5 cm height
Experimental: Determination method of bulk density: A sample of an example is added to a 50 mL measuring cylinder and continuously subjected to free-fall impact at a height of 5 cm until the sample is compacted, and then a mass of the sample is measured to obtain bulk density data.

| Structure (SMILES) | Purity after storage, One month [1] [%] | Purity after storage, Six months [1] [%] | Purity after storage, Three months [1] [%] | Purity after storage, Twelve months [1] [%] | Purity after storage, Twenty-four months [1] [%] | Bulk density [2] [g/mL] |
| --- | --- | --- | --- | --- | --- | --- |
| OC[C@H]1O[C@H](O[C@]2(CCl)O[C@H](CCl)[C@@H](O)[C@@H]2O)[C@H](O)[C@@H](O)[C@H]1Cl [Comparative Example 1, sucralose] | 99.61 | 99.51 | 99.57 | 99.38 | 99.12 | 0.981 |
| OC[C@H]1O[C@H](O[C@]2(CCl)O[C@H](CCl)[C@@H](O)[C@@H]2O)[C@H](O)[C@@H](O)[C@H]1Cl [Comparative Example 2, sucralose] | 99.73 | 99.63 | 99.69 | 99.47 | 99.20 | 1.021 |
| OC[C@H]1O[C@H](O[C@]2(CCl)O[C@H](CCl)[C@@H](O)[C@@H]2O)[C@H](O)[C@@H](O)[C@H]1Cl [Comparative Example 3, sucralose] | 99.63 | 99.50 | 99.58 | 99.35 | 99.04 | 0.979 |
| OC[C@H]1O[C@H](O[C@]2(CCl)O[C@H](CCl)[C@@H](O)[C@@H]2O)[C@H](O)[C@@H](O)[C@H]1Cl [Example 1, sucralose] | 99.95 | 99.87 | 99.92 | 99.79 | 99.56 | 1.109 |
| OC[C@H]1O[C@H](O[C@]2(CCl)O[C@H](CCl)[C@@H](O)[C@@H]2O)[C@H](O)[C@@H](O)[C@H]1Cl [Example 2, sucralose] | 99.65 | 99.50 | 99.59 | 99.33 | 98.98 | 1.056 |
| OC[C@H]1O[C@H](O[C@]2(CCl)O[C@H](CCl)[C@@H](O)[C@@H]2O)[C@H](O)[C@@H](O)[C@H]1Cl [Example 3, sucralose] | 99.63 | 99.47 | 99.56 | 99.26 | 98.87 | 1.067 |

The remaining lines, values ahead:

| Purity after storage, One month [1] [%] | Purity after storage, Six months [1] [%] | Purity after storage, Three months [1] [%] | Purity after storage, Twelve months [1] [%] | Purity after storage, Twenty-four months [1] [%] | Bulk density [2] [g/mL] | Structure (SMILES) |
| --- | --- | --- | --- | --- | --- | --- |
| 99.94 | 99.85 | 99.91 | 99.73 | 99.69 | 1.110 | OC[C@H]1O[C@H](O[C@]2(CCl)O[C@H](CCl)[C@@H](O)[C@@H]2O)[C@H](O)[C@@H](O)[C@H]1Cl [Example 4, sucralose] |
| 99.85 | 99.73 | 99.79 | 99.60 | 99.35 | 1.103 | OC[C@H]1O[C@H](O[C@]2(CCl)O[C@H](CCl)[C@@H](O)[C@@H]2O)[C@H](O)[C@@H](O)[C@H]1Cl [Example 5, sucralose] |
| 99.74 | 99.63 | 99.70 | 99.51 | 99.23 |  | OC[C@H]1O[C@H](O[C@]2(CCl)O[C@H](CCl)[C@@H](O)[C@@H]2O)[C@H](O)[C@@H](O)[C@H]1Cl [Example 6, sucralose] |
| 99.36 | 99.05 | 99.12 | 98.78 | 98.42 | 0.978 | OC[C@H]1O[C@H](O[C@]2(CCl)O[C@H](CCl)[C@@H](O)[C@@H]2O)[C@H](O)[C@@H](O)[C@H]1Cl [Raw material, sucralose] |
